This passage reports IC50 results from patent US12466831B2, “Substituted amino triazolopyrimidine and amino triazolopyrazine adenosine receptor antagonists, pharmaceutical compositions and their use” (Merck Sharp & Dohme LLC, priority 2018, dated 2025).

This test addresses T1, human A2a adenosine receptor (Homo sapiens, UniProt P29274).
T1 construct: purchased Perkin Elmer RBHA2aM400UA; host or cells: HEK293 or CHO cells (recombinant expression)
The experiment in a line: A2a binding affinity using radioligand binding, Method (A). To be noted: Method (A): [3H]SCH58261 filtration binding, membranes expressing human A2a. An excerpt:
Method (A) describes the procedure used to measure A2a binding affinity using radioligand binding. Method (B) describes the procedure used to measure A2a binding affinity using SPA technology. The method used to measure A2b binding affinity is also described below. The method used to determine the A2a IC50 value reported for each compound in the table is indicated next to the reported value. The A2b IC50 value measured using the A2b binding affinity assay is shown in the table next to the compound under the corresponding A2a value.
The A2a receptor affinity binding assay measured the amount of binding of a tritiated ligand with high affinity for the A2a adenosine receptor to membranes made from HEK293 or CHO cells recombinantly expressing the human A2a adenosine receptor, in the presence of varying concentrations of a compound of the invention. The data were generated using either filtration binding or a homogenous scintillation proximity assay (SPA).
Method (A): Measurement of A2a Binding Affinity Using Radioligand Binding
148 μL (5 μg/mL) membranes (Perkin Elmer, Cat. No. RBHA2aM400UA) and 2 μL compounds of the invention to be tested (test compound) were transferred to individual wells of a 96-well polypropylene assay plate and incubated for 15 to 30 minutes at room temperature. [^3H] SCH58261 ((7-(2-phenylethyl)-5-amino-2-(2-furyl)-pyrazolo-[4,3-e]-1,2,4-triazolo[1,5-c]pyrimidine)) was diluted in assay buffer (50 mM Tris pH 7.4, 10 mM MgCl2, 0.005% Tween20) to a concentration of 4 nM and 50 μL transferred to each well of the assay plate. To define total and non-specific binding, wells containing 1% DMSO and 1 μM ZM241385 (Tocris Bioscience, Cat. No. 1036) respectively, were also included. The assay plate was incubated at room temperature for 60 minutes with agitation. Using a FilterMate Harvester® (Perkin Elmer), the contents of the assay plate were filtered through a UniFilter-96® PEI coated plate (Perkin Elmer Cat. No. 6005274 or 6005277). Filtering was achieved by aspirating the contents of the assay plate for 5 seconds, then washing and aspirating the contents three times with ice-cooled wash buffer (50 mM Tris-HCl pH 7.4, 150 mM NaCl) and allowing the vacuum manifold to dry the plate for 30 seconds. The filter plate was incubated for at least 1 hour at 55° C. and allowed to dry. The bottom of the filter plate was sealed with backing tape. 40 μL Ultima Gold™ (Perkin Elmer, Cat. No. 6013329) was added to each well of the filter plate and the top of the plate was sealed with TopSeal-A PLUS® clear plate seal (Perkin Elmer, Cat. No. 6050185). The plate was incubated for at least 20 minutes, and then the amount of radioactivity remaining in each well was determined using a TopCount® (Perkin Elmer) scintillation counter. After normalization to total and non-specific binding, the percent effect at each compound concentration was calculated. The plot of percent effect versus the log of compound concentration was analyzed electronically using a 4-parameter logistic fit based on the Levenberg-Marquardt algorithm to generate IC50 values.

T1 sequence (P29274 whole entry): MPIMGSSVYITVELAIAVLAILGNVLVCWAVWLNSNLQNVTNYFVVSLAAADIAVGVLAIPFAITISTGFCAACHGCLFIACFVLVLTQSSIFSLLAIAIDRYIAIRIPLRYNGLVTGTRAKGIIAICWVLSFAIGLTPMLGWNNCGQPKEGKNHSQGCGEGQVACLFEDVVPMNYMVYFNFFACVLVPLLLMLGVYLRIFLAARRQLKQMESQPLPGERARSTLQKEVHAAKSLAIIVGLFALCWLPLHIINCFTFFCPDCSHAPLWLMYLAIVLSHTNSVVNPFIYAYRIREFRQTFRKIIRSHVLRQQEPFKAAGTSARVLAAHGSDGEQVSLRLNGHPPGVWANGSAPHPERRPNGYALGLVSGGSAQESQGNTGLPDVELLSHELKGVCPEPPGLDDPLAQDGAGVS

As a reminder, the IC50 is the concentration at which inhibition is half-maximal. A low value points to inhibition by little substance. In turn, `Nc1nc(-c2ccccc2)cc2nc([C@@H]3CC(F)(F)CN3C(=O)C3CC3)nn12` [Example 4.3, (S)-(2-(5-amino-7-phenyl-[1,2,4]triazolo[1,5-c]pyrimidin-2-yl)-4,4-difluoropyrrolidin-1-yl)(cyclopropyl)methanone] displayed an IC50 of 14.9 nM.

Compound `Cc1c(-c2ncco2)nc(N)n2nc([C@H]3C[C@@H](c4ccc(C(C)(C)O)cn4)C3)nc12` [Example 2.18, 2-(6-((1,3-cis)-3-(5-amino-8-methyl-7-(oxazol-2-yl)-[1,2,4]triazolo[1,5-c]pyrimidin-2-yl)cyclobutyl)pyridin-3-yl)propan-2-ol] registered an IC50 of 3.7 nM.

On to `Cc1c(-c2ncco2)nc(N)n2nc([C@H]3C[C@H](c4ccc(C(C)(C)N)nc4)C3)nc12` [Example 10.6, 2-((1,3-trans)-3-(6-(2-aminopropan-2-yl)pyridin-3-yl)cyclobutyl)-8-methyl-7-(oxazol-2-yl)-[1,2,4]triazolo[1,5-c]pyrimidin-5-amine], for which the IC50 stood at 15.7 nM.

As for `Cc1c(-c2ncco2)nc(N)n2nc([C@H]3C[C@H](c4ccc(C(C)(C)O)cn4)C3)nc12` [Example 2.19, 2-(6-((1,3-trans)-3-(5-amino-8-methyl-7-(oxazol-2-yl)-[1,2,4]triazolo[1,5-c]pyrimidin-2-yl)cyclobutyl)pyridin-3-yl)propan-2-ol], the IC50 is 5.2 nM.

Turning to `Nc1nc(-c2ccccc2)cc2nc([C@@H]3CC(F)(F)CN3)nn12` [Example 2.1, (S)-2-(4,4-difluoropyrrolidin-2-yl)-7-phenyl-[1,2,4]triazolo[1,5-c]pyrimidin-5-amine], the IC50 stood at 12 nM.

On to `Nc1nc(-c2ncco2)cc2nc([C@@H]3CC(F)(F)CN3)nn12` [Example 2.2, (S)-2-(4,4-difluoropyrrolidin-2-yl)-7-(oxazol-2-yl)-[1,2,4]triazolo[1,5-c]pyrimidin-5-amine], for which the IC50 came to 143 nM.

The compound `Cc1c(-c2ncco2)nc(N)n2nc([C@H]3C[C@@H](c4ccc(C(C)(C)N)cn4)C3)nc12` [Example 2.21, 2-((1,3-cis)-3-(5-(2-aminopropan-2-yl)pyridin-2-yl)cyclobutyl)-8-methyl-7-(oxazol-2-yl)-[1,2,4]triazolo[1,5-c]pyrimidin-5-amine] registered an IC50 of 26.3 nM.

As to `Cc1c(-c2ncco2)nc(N)n2nc([C@H]3C[C@H](c4ccc(C(C)(C)N)cn4)C3)nc12` [Example 2.20, 2-((1,3-trans)-3-(5-(2-aminopropan-2-yl)pyridin-2-yl)cyclobutyl)-8-methyl-7-(oxazol-2-yl)[l,2,4]triazolo[1,5-c]pyrimidin-5-amine], the IC50 was determined as 9.9 nM.
